Like-named read-outs stand apart in the source and are kept apart here.
Assays:
[1] = target: KRAS-G12V/RAF1 (Homo sapiens (Human), UniProt P01116, G12V); test: KRAS/RAF1 binding inhibition assay (AlphaScreen)
In short: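 Binding of GppNHp-loaded KRAS G12V to the RAF1 RBD was measured by AlphaScreen with test compound present in 2% DMSO (final), 60 min incubation at 4° C. Signals were converted to % inhibition versus DMSO, and IC50 was obtained by variable-slope nonlinear regression.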

[2] = target: KRAS G12V (Homo sapiens (Human), UniProt P01116, G12V); test: KRAS G12V degradation in SW620 cells (Western blot, DC50); type: cell-based; conditions: 24 hours
Sequence of KRAS G12V (P01116-2 other isoform, or with tags, fused parts or gaps G12V): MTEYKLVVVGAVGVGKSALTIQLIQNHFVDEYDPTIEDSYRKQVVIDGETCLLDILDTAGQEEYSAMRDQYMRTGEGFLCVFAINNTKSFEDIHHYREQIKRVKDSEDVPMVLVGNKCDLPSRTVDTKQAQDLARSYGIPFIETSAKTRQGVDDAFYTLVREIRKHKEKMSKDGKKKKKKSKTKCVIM
In short: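 SW620 cells (homozygous KRAS G12V) were treated with compound for 24 hours at 37° C. KRAS in lysates was measured by Western blot with fluorescent secondary antibodies and expressed relative to DMSO vehicle (100%). DC50 came from a four-parameter variable-slope dose-response fit.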

[3] = test system: SW620 cells; test: 3D cell growth inhibition of SW620 cells carrying endogenous KRAS G12V mutation (CellTiter-Glo 3D, GI50); type: cell-based; conditions: Homo sapiens, SW-620, 144 h, read-out: SW620 3D cell growth GI50
In short: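 SW620 cells (endogenous KRAS G12V) grown in 3D were dosed next day with compound from DMSO stocks at various concentrations, then incubated 6 days at 37° C.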

Sequence of KRAS-G12V/RAF1 (P01116-2 other isoform, or with tags, fused parts or gaps G12V): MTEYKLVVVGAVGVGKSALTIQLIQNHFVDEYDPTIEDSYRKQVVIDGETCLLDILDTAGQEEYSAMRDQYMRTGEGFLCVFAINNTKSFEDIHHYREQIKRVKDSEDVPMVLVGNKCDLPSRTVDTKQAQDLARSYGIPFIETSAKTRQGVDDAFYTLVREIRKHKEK

| Compound | IC50 [1] [nM] | DC50 [2] [nM] | GI50 ([3]; SW620 cells, 6 days) [nM] | GI50 [3] [nM] |
| --- | --- | --- | --- | --- |
| C[C@@]1(O)CCCN(c2nc(OCC3(CN4CCC(CN5CCN(c6ccc7c(c6)CN([C@H]6CCC(=O)NC6=O)C7=O)CC5)CC4)CC3)nc3c(F)c(-c4cc(O)cc5cccc(Cl)c45)ncc23)C1 [Compound 123, (S)-3-(5-(4-((1-((1-(((7-(8-chloro-3-hydroxynaphthalen-1-yl)-8-fluoro-4-((R)-3-hydroxy-3-methylpiperidin-1-yl)pyrido[4,3-d]pyrimidin-2-yl)oxy)methyl)cyclopropyl)methyl)piperidin-4-yl)methyl)piperazin-1-yl)-1-oxoisoindolin-2-yl)piperidine-2,6-dione] | 20 to 200 | 1 to 10 | 10 to 100 |  |
| CCc1cccc2cc(O)cc(-c3ncc4c(N5CCNC(=O)CC5)nc(OCC5(CN6CCC7(CC6)CC(CN6CCN(c8ccc9c(c8)CN([C@H]8CCC(=O)NC8=O)C9=O)CC6)C7)CC5)nc4c3F)c12 [Compound 128, (S)-3-(5-(4-((7-((1-(((7-(8-ethyl-3-hydroxynaphthalen-1-yl)-8-fluoro-4-(5-oxo-1,4-diazepan-1-yl)pyrido[4,3-d]pyrimidin-2-yl)oxy)methyl)cyclopropyl)methyl)-7-azaspiro[3.5]nonan-2-yl)methyl)piperazin-1-yl)-1-oxoisoindolin-2-yl)piperidine-2,6-dione] | > 200 | > 100 | > 100 |  |
| CCc1c(F)ccc2cc(O)cc(-c3ncc4c(N5CCC[C@@](C)(O)C5)nc(OCC5(CN6CC(N7CCN(c8ccc9c(c8)CN([C@H]8CCC(=O)NC8=O)C9=O)CC7)C6)CC5)nc4c3F)c12 [Compound 130, (S)-3-(5-(4-(1-((1-(((7-(8-ethyl-7-fluoro-3-hydroxynaphthalen-1-yl)-8-fluoro-4-((R)-3-hydroxy-3-methylpiperidin-1-yl)pyrido[4,3-d]pyrimidin-2-yl)oxy)methyl)cyclopropyl)methyl)azetidin-3-yl)piperazin-1-yl)-1-oxoisoindolin-2-yl)piperidine-2,6-dione] | 20 to 200 | 1 to 10 | < 10 |  |
| CCc1c(F)ccc2cc(O)cc(-c3ncc4c(N5CCC[C@@](C)(O)C5)nc(OCC5(CN6CCC7(CC6)CN(CC6CCN(c8ccc9c(c8)CN(C8CCC(=O)NC8=O)C9=O)CC6)C7)CC5)nc4c3F)c12 (stereo partly drawn) [Compound 131, 3-(5-(4-((7-((1-(((7-(8-ethyl-7-fluoro-3-hydroxynaphthalen-1-yl)-8-fluoro-4-((R)-3-hydroxy-3-methylpiperidin-1-yl)pyrido[4,3-d]pyrimidin-2-yl)oxy)methyl)cyclopropyl)methyl)-2,7-diazaspiro[3.5]nonan-2-yl)methyl)piperidin-1-yl)-1-oxoisoindolin-2-yl)piperidine-2,6-dione] | < 20 | < 1 |  | < 10 |
| CCc1c(F)ccc2cc(O)cc(-c3ncc4c(N5CCC[C@@](C)(O)C5)nc(OCC5(CN6CCN(CC7CN(c8ccc9c(c8)CN(C8CCC(=O)NC8=O)C9=O)C7)CC6)CC5)nc4c3F)c12 (stereo partly drawn) [Compound 133, 3-[5-[3-[[4-[[1-[[7-(8-ethyl-7-fluoro-3-hydroxy-1-naphthyl)-8-fluoro-4-[(3R)-3-hydroxy-3-methyl-1-piperidyl]pyrido[4,3-d]pyrimidin-2-yl]oxymethyl]cyclopropyl]methyl]piperazin-1-yl]methyl]azetidin-1-yl]-1-oxo-isoindolin-2-yl]piperidine-2,6-dione] | 20 to 200 | < 1 |  | < 10 |
| C[C@@]1(O)CCCN(c2nc(OCC3(CN4CCC5(CC4)CC(CN4CCN(c6ccc7c(c6)CN([C@H]6CCC(=O)NC6=O)C7=O)CC4)C5)CC3)nc3c(F)c(-c4cc(N)cc(Cl)c4C(F)(F)F)ncc23)C1 [Compound 135, (S)-3-(5-(4-((7-((1-(((7-(5-amino-3-chloro-2-(trifluoromethyl)phenyl)-8-fluoro-4-((R)-3-hydroxy-3-methylpiperidin-1-yl)pyrido[4,3-d]pyrimidin-2-yl)oxy)methyl)cyclopropyl)methyl)-7-azaspiro[3.5]nonan-2-yl)methyl)piperazin-1-yl)-1-oxoisoindolin-2-yl)piperidine-2,6-dione] | 20 to 200 | 1 to 10 | < 10 |  |
| CCc1c(F)ccc2cc(O)cc(-c3ncc4c(N5CCC[C@@](C)(O)C5)nc(OCC5(CN6CC7(CCC(N8CCN(c9ccc%10c(c9)CN([C@H]9CCC(=O)NC9=O)C%10=O)CC8)CC7)C6)CC5)nc4c3F)c12 [Compound 136, (S)-3-(5-(4-(2-((1-(((7-(8-ethyl-7-fluoro-3-hydroxynaphthalen-1-yl)-8-fluoro-4-((R)-3-hydroxy-3-methylpiperidin-1-yl)pyrido[4,3-d]pyrimidin-2-yl)oxy)methyl)cyclopropyl)methyl)-2-azaspiro[3.5]nonan-7-yl)piperazin-1-yl)-1-oxoisoindolin-2-yl)piperidine-2,6-dione] | < 20 | < 1 | 10 to 100 |  |

Second part, led by results:

| IC50 [1] [nM] | DC50 [2] [nM] | GI50 ([3]; SW620 cells, 6 days) [nM] | Compound | GI50 [3] [nM] |
| --- | --- | --- | --- | --- |
| 20 to 200 | 1 to 10 | < 10 | CCc1c(F)ccc2cc(O)cc(-c3ncc4c(N5CCOCC6(CCO6)C5)nc(OCC5(CN6CCC7(CC6)CC(CN6CCN(c8ccc9c(c8)CN([C@H]8CCC(=O)NC8=O)C9=O)CC6)C7)CC5)nc4c3F)c12 (stereo partly drawn) [Compound 124, (3S)-3-(5-(4-((7-((1-(((7-(8-ethyl-7-fluoro-3-hydroxynaphthalen-1-yl)-8-fluoro-4-(1,6-dioxa-9-azaspiro[3.6]decan-9-yl)pyrido[4,3-d]pyrimidin-2-yl)oxy)methyl)cyclopropyl)methyl)-7-azaspiro[3.5]nonan-2-yl)methyl)piperazin-1-yl)-1-oxoisoindolin-2-yl)piperidine-2,6-dione] |  |
| 20 to 200 | 1 to 10 | < 10 | CCc1c(F)ccc2cc(O)cc(-c3ncc4c(N5CCC[C@@](C)(O)C5)nc(OCC5(CN6CC7(CCC(CN8CCN(c9ccc%10c(c9)CN([C@H]9CCC(=O)NC9=O)C%10=O)CC8)CC7)C6)CC5)nc4c3F)c12 [Compound 126, (3S)-3-[5-[4-[[2-[[1-[[7-(8-ethyl-7-fluoro-3-hydroxy-1-naphthyl)-8-fluoro-4-[(3R)-3-hydroxy-3-methyl-1-piperidyl]pyrido[4,3-d]pyrimidin-2-yl]oxymethyl]cyclopropyl]methyl]-2-azaspiro[3.5]nonan-7-yl]methyl]piperazin-1-yl]-1-oxo-isoindolin-2-yl]piperidine-2,6-dione] |  |
| 20 to 200 | < 1 | 10 to 100 | C[C@@]1(O)CCCN(c2nc(OCC3(CN4CCC5(CC4)CC(CN4CCN(c6ccc7c(c6)CN([C@H]6CCC(=O)NC6=O)C7=O)CC4)C5)CC3)nc3c(F)c(-c4cc(O)cc5cccc(Cl)c45)ncc23)C1 [Compound 129, (S)-3-(5-(4-((7-((1-(((7-(8-chloro-3-hydroxynaphthalen-1-yl)-8-fluoro-4-((R)-3-hydroxy-3-methylpiperidin-1-yl)pyrido[4,3-d]pyrimidin-2-yl)oxy)methyl)cyclopropyl)methyl)-7-azaspiro[3.5]nonan-2-yl)methyl)piperazin-1-yl)-1-oxoisoindolin-2-yl)piperidine-2,6-dione] |  |

Reference: patent publication US20250092039A1, “GLUTARIMIDE-CONTAINING PAN-KRAS-MUTANT DEGRADER COMPOUNDS AND USES THEREOF” (Tiger Biotherapeutics Inc., priority 2022, published 2025)
